Assay results as given in ChEMBL document CHEMBL1138706, “Synthesis and biological evaluation of novel taxoids designed for targeted delivery to tumors” (Bioorg Med Chem Lett, 2004).
pIC50: −log10 of the molar value.

Key:
A549 = assay: inhibitory concentration against the growth of Non-small-cell lung carcinoma A549 cell line after 72 hr of exposure; type: functional, cell-based; conditions: Homo sapiens, A549, 72 h
MCF7 = assay: inhibitory concentration against the growth of breast cancer MCF-7 cell line after 72 hr of exposure; type: functional, cell-based; conditions: Homo sapiens, MCF7, 72 h

Row | pIC50 (A549) | pIC50 (MCF7) | SMILES
1 | 7.40 | 7.40 | CCCCOC(=O)N[C@@H](c1cccs1)[C@@H](O)C(=O)O[C@H]1C[C@@]2(O)[C@@H](OC(=O)c3cc(OC)ccc3OC)[C@@H]3[C@]4(OC(C)=O)CO[C@@H]4C[C@H](O)[C@@]3(C)C(=O)[C@H](OC(C)=O)C(=C1C)C2(C)C
2 | 7.05 | 6.92 | COc1ccc(OC)c(C(=O)O[C@H]2[C@@H]3[C@]4(OC(C)=O)CO[C@@H]4C[C@H](O)[C@@]3(C)C(=O)[C@H](OC(C)=O)C3=C(C)[C@@H](OC(=O)[C@H](O)[C@@H](NC(=O)c4ccco4)c4ccco4)C[C@]2(O)C3(C)C)c1
3 | 7.40 | 7.52 | CCCCOC(=O)N[C@@H](C=C(C)C)[C@@H](O)C(=O)O[C@H]1C[C@@]2(O)[C@@H](OC(=O)c3cc(OC)ccc3OC)[C@@H]3[C@]4(OC(C)=O)CO[C@@H]4C[C@H](O)[C@@]3(C)C(=O)[C@H](OC(C)=O)C(=C1C)C2(C)C
4 | < 5.52 | < 5.52 | COc1ccc(OC)c(C(=O)O[C@H]2[C@@H]3[C@]4(OC(C)=O)CO[C@@H]4C[C@H](O)[C@@]3(C)C(=O)[C@H](OC(C)=O)C3=C(C)[C@@H](OC(=O)[C@H](O)[C@@H](NC(=O)c4ccccc4)c4cccs4)C[C@]2(O)C3(C)C)c1
5 | 7.40 | 7.52 | COc1ccc(OC)c(C(=O)O[C@H]2[C@@H]3[C@]4(OC(C)=O)CO[C@@H]4C[C@H](O)[C@@]3(C)C(=O)[C@H](OC(C)=O)C3=C(C)[C@@H](OC(=O)[C@H](O)[C@H](C=C(C)C)NC(=O)c4cccs4)C[C@]2(O)C3(C)C)c1
6 | 7.52 | 7.52 | CCCCOC(=O)N[C@@H](c1ccco1)[C@@H](O)C(=O)O[C@H]1C[C@@]2(O)[C@@H](OC(=O)c3cc(OC)ccc3OC)[C@@H]3[C@]4(OC(C)=O)CO[C@@H]4C[C@H](O)[C@@]3(C)C(=O)[C@H](OC(C)=O)C(=C1C)C2(C)C
7 | 7.52 | 7.52 | COc1ccc(OC)c(C(=O)O[C@H]2[C@@H]3[C@]4(OC(C)=O)CO[C@@H]4C[C@H](O)[C@@]3(C)C(=O)[C@H](OC(C)=O)C3=C(C)[C@@H](OC(=O)[C@H](O)[C@@H](NC(=O)c4cccs4)c4cccs4)C[C@]2(O)C3(C)C)c1
8 | 7.52 | 7.52 | COc1ccc(OC)c(C(=O)O[C@H]2[C@@H]3[C@]4(OC(C)=O)CO[C@@H]4C[C@H](O)[C@@]3(C)C(=O)[C@H](OC(C)=O)C3=C(C)[C@@H](OC(=O)[C@H](O)[C@@H](NC(=O)OC(C)(C)C)c4cccs4)C[C@]2(O)C3(C)C)c1
9 | 6.89 | 7.52 | COc1ccc(OC)c(C(=O)O[C@H]2[C@@H]3[C@]4(OC(C)=O)CO[C@@H]4C[C@H](O)[C@@]3(C)C(=O)[C@H](OC(C)=O)C3=C(C)[C@@H](OC(=O)[C@H](O)[C@@H](NC(=O)c4ccccc4)c4ccccc4)C[C@]2(O)C3(C)C)c1
10 | 7.00 | 7.22 | COc1ccc(OC)c(C(=O)O[C@H]2[C@@H]3[C@]4(OC(C)=O)CO[C@@H]4C[C@H](O)[C@@]3(C)C(=O)[C@H](OC(C)=O)C3=C(C)[C@@H](OC(=O)[C@H](O)[C@@H](NC(=O)c4cccs4)c4ccco4)C[C@]2(O)C3(C)C)c1
11 | 7.52 | 8.00 | C/C=C/C(=O)N[C@@H](C=C(C)C)[C@@H](O)C(=O)O[C@H]1C[C@@]2(O)[C@@H](OC(=O)c3cc(OC)ccc3OC)[C@@H]3[C@]4(OC(C)=O)CO[C@@H]4C[C@H](O)[C@@]3(C)C(=O)[C@H](OC(C)=O)C(=C1C)C2(C)C
12 | 6.80 | 6.89 | C/C=C/C(=O)N[C@@H](c1ccco1)[C@@H](O)C(=O)O[C@H]1C[C@@]2(O)[C@@H](OC(=O)c3cc(OC)ccc3OC)[C@@H]3[C@]4(OC(C)=O)CO[C@@H]4C[C@H](O)[C@@]3(C)C(=O)[C@H](OC(C)=O)C(=C1C)C2(C)C
13 | 7.40 | 7.40 | COc1ccc(OC)c(C(=O)O[C@H]2[C@@H]3[C@]4(OC(C)=O)CO[C@@H]4C[C@H](O)[C@@]3(C)C(=O)[C@H](OC(C)=O)C3=C(C)[C@@H](OC(=O)[C@H](O)[C@H](C=C(C)C)NC(=O)c4ccccc4)C[C@]2(O)C3(C)C)c1
14 | 6.66 | 6.68 | COc1ccc(OC)c(C(=O)O[C@H]2[C@@H]3[C@]4(OC(C)=O)CO[C@@H]4C[C@H](O)[C@@]3(C)C(=O)[C@H](OC(C)=O)C3=C(C)[C@@H](OC(=O)[C@H](O)[C@@H](NC(=O)c4ccccc4)c4ccco4)C[C@]2(O)C3(C)C)c1
15 | 7.52 | 7.40 | COc1ccc(OC)c(C(=O)O[C@H]2[C@@H]3[C@]4(OC(C)=O)CO[C@@H]4C[C@H](O)[C@@]3(C)C(=O)[C@H](OC(C)=O)C3=C(C)[C@@H](OC(=O)[C@H](O)[C@@H](NC(=O)C=C(C)C)c4ccco4)C[C@]2(O)C3(C)C)c1
16 | 7.40 | 7.40 | COc1ccc(OC)c(C(=O)O[C@H]2[C@@H]3[C@]4(OC(C)=O)CO[C@@H]4C[C@H](O)[C@@]3(C)C(=O)[C@H](OC(C)=O)C3=C(C)[C@@H](OC(=O)[C@H](O)[C@H](C=C(C)C)NC(=O)OC(C)(C)C)C[C@]2(O)C3(C)C)c1
17 | 7.22 | 7.52 | COc1ccc(OC)c(C(=O)O[C@H]2[C@@H]3[C@]4(OC(C)=O)CO[C@@H]4C[C@H](O)[C@@]3(C)C(=O)[C@H](OC(C)=O)C3=C(C)[C@@H](OC(=O)[C@H](O)[C@H](C=C(C)C)NC(=O)c4ccco4)C[C@]2(O)C3(C)C)c1
18 | 7.30 | 7.22 | COc1ccc(OC)c(C(=O)O[C@H]2[C@@H]3[C@]4(OC(C)=O)CO[C@@H]4C[C@H](O)[C@@]3(C)C(=O)[C@H](OC(C)=O)C3=C(C)[C@@H](OC(=O)[C@H](O)[C@@H](NC(=O)c4ccco4)c4cccs4)C[C@]2(O)C3(C)C)c1
19 | 7.70 | 7.70 | COc1ccc(OC)c(C(=O)O[C@H]2[C@@H]3[C@]4(OC(C)=O)CO[C@@H]4C[C@H](O)[C@@]3(C)C(=O)[C@H](OC(C)=O)C3=C(C)[C@@H](OC(=O)[C@H](O)[C@H](C=C(C)C)NC(=O)C=C(C)C)C[C@]2(O)C3(C)C)c1
20 | 7.40 | 7.30 | COc1ccc(OC)c(C(=O)O[C@H]2[C@@H]3[C@]4(OC(C)=O)CO[C@@H]4C[C@H](O)[C@@]3(C)C(=O)[C@H](OC(C)=O)C3=C(C)[C@@H](OC(=O)[C@H](O)[C@@H](NC(=O)C=C(C)C)c4cccs4)C[C@]2(O)C3(C)C)c1
21 | 6.74 | 6.80 | C/C=C/C(=O)N[C@@H](c1cccs1)[C@@H](O)C(=O)O[C@H]1C[C@@]2(O)[C@@H](OC(=O)c3cc(OC)ccc3OC)[C@@H]3[C@]4(OC(C)=O)CO[C@@H]4C[C@H](O)[C@@]3(C)C(=O)[C@H](OC(C)=O)C(=C1C)C2(C)C
22 | 7.30 | 7.22 | COc1ccc(OC)c(C(=O)O[C@H]2[C@@H]3[C@]4(OC(C)=O)CO[C@@H]4C[C@H](O)[C@@]3(C)C(=O)[C@H](OC(C)=O)C3=C(C)[C@@H](OC(=O)[C@H](O)[C@@H](NC(=O)OC(C)(C)C)c4ccccc4)C[C@]2(O)C3(C)C)c1
23 | 7.52 | 7.40 | COc1ccc(OC)c(C(=O)O[C@H]2[C@@H]3[C@]4(OC(C)=O)CO[C@@H]4C[C@H](O)[C@@]3(C)C(=O)[C@H](OC(C)=O)C3=C(C)[C@@H](OC(=O)[C@H](O)[C@@H](NC(=O)OC(C)(C)C)c4ccco4)C[C@]2(O)C3(C)C)c1
24 | 6.00 | 6.00 | CC(=O)O[C@@]12CO[C@@H]1C[C@H](O)[C@@]1(C)C(=O)[C@H](O)C3=C(C)[C@@H](OC(=O)[C@H](O)[C@@H](NC(=O)OC(C)(C)C)c4ccccc4)C[C@@](O)([C@@H](OC(=O)c4ccccc4)[C@H]21)C3(C)C [DOCETAXEL]
25 | 5.77 | 6.10 | CC(=O)O[C@H]1C(=O)[C@@]2(C)[C@H]([C@H](OC(=O)c3ccccc3)[C@]3(O)C[C@H](OC(=O)[C@H](O)[C@@H](NC(=O)c4ccccc4)c4ccccc4)C(C)=C1C3(C)C)[C@]1(OC(C)=O)CO[C@@H]1C[C@@H]2O [PACLITAXEL]
